According to patent publication US9439968B2, “Amine-containing lipidoids and uses thereof” (Massachusetts Institute of Technology, priority 2012, dated 2016):

Legend:
[1] = system: HeLa cells stably modified to express both firefly and Renilla luciferase; test: In vitro transfection of HeLa cells with lipid nanoparticles (firefly luciferase silencing); assay type: cell-based; conditions: 40 nM anti-firefly luciferase siRNA formulated with lipidoid; firefly normalized to Renilla; crude lipidoids
[2] = system: Factor VII; test: In vivo Factor VII gene silencing in mouse hepatocytes; design: species or system mice; conditions: for Relative FVII Activity: tail vein, serum two days post-injection
[3] = Nanoparticle characterization; assay type: physicochemical
[4] = Serum clinical chemistry; assay type: in vivo, mice; conditions: 72 hours after single 3 mg/kg dose or four once weekly 3 mg/kg doses
Procedure: The mice had been injected with either a single 3 mg/kg dose of total siRNA or four 3 mg/kg doses (1× per week for four weeks). Blood was drawn for analysis 72 hours post-final injection. There were no statistically significant changes in any of the clinical chemistry parameters for any of the treated groups compared to controls (as evaluated by a student t-test). Error bars represent standard deviation (n=3-5).
(§1) Post-sacrifice, cardiac sticks were immediately performed on animals that had been dosed with either 304O13 or C12-200 lipid nanoparticles. Blood was centrifuged in serum separator tubes at 5,000 rpm for 10 minutes, and serum was analyzed for various hematological parameters. Serum chemistry was evaluated on a Beckman Olympus AU400 Serum Chemistry Analyzer. Cytokines were analyzed using Bio-Plex Pro Mouse Cytokine 23-Plex Assay kits (Luminex Corporation, Austin, Tex.) on the Bio-Plex 200 system, according to manufacturer instructions.
A preliminary safety assessment was conducted on the lead LNP, 304O13, and it was compared to another previously-discovered LNP formulation, C12-200 (Love, K. T. et al. Lipid-like materials for low-dose, in vivo gene silencing. PNAS 107, 1864-1869 (2010)). […] Serum cytokine levels for both materials were assessed in mice four hours after a 3 mg/kg IV bolus injection (total siRNA). […]

[5] = Histology (H&E) of liver, spleen, kidneys and pancreas; assay type: in vivo, mice; conditions: for dose at which liver necrosis was observed: single-dose studies (0-10 mg/kg)
Procedure: Organs were harvested from animals that had received various doses of either 304O13 or C12-200 lipid nanoparticles (C12-200 is a control non-degradable lipidoid shown below). Organs were fixed overnight in 4% paraformaldehyde and transferred to 70% ethanol prior to paraffin embedding, sectioning, and H & E staining.
Histological analysis was performed through H&E staining on sections from the liver, spleen, kidneys and pancreas. […] Pancreatic inflammation and islet cell enlargement were detected at C12-200 doses ≧2 mg/kg. […] Multi-dose studies were also conducted in which mice received four injections of 0.3, 1, 2, 3, or 5 mg/kg, once per week for four weeks. […] There was no sign of liver toxicity in any of the 304O13 groups up to 5 mg/kg.

[6] = Lipidoid hydrolysis; assay type: physicochemical; conditions: 6 N HCl reflux 24 h; KOH in EtOH/H2O reflux 41 h
Procedure: To a 25 ml round bottom flask was added 304O13 (0.250 g, 0.263 mmol, 1 equiv). For acidic hydrolysis, 10 ml of a solution of 6 N HCl was added to the flask to afford a cloudy heterogeneous solution. The reaction was heated to reflux to afford a clear, homogeneous solution and was stirred at reflux for 24 hours. For basic hydrolysis, 10 ml of a solution of KOH in EtOH/H2O (solution=5.61 g KOH in 47.5 ml EtOH w/2.5 ml distilled H2O) was added to the flask to afford a clear colorless solution. The reaction was heated to reflux and stirred for 41 h. […] Reactions were concentrated to dryness under reduced pressure and diluted with CDCl3. The basic reaction was filtered to remove excess KOH. Proton NMR analysis was performed in CDCl3. Proton nuclear magnetic resonance spectra were recorded with a Bruker Avance 400 spectrometer, are depicted in parts per million on the δ scale, and are referenced from the residual protium in the NMR solvent (CDCl3: δ 7.26 (CHCl3).
The acrylate-based lipidoids provided herein also contain hydrolysable ester moieties, functional groups which are commonly incorporated into delivery vehicles to promote physiological degradation (Staubli, A., Ron, E. & Langer, R. J. Am. Chem. Soc. 112, 4419-4424 (1990); van Dijkhuizen-Radersma, et al. Biomaterials 23, 4719-4729 (2002); Geng, Y. & Discher, D. E. J. Am. Chem. Soc. 127, 12780-12781 (2005)).

[7] = system: CD45; test: In vivo CD45 silencing in leukocyte populations; conditions: peritoneal cavity and spleen, three days post intravenous delivery
[8] = Biodistribution of Cy5.5-labeled siRNA (IVIS, Odyssey, confocal); conditions: liver harvested one hour post-injection
[9] = Serum cytokine profiling; assay type: in vivo, mice; conditions: four hours after 3 mg/kg IV bolus (total siRNA)
Procedure: as §1
Cytokine analysis was done by injecting either 304O13 or C12-200 nanoparticles at an siRNA dose of 3 mg/kg. Four hours post-injection, blood was harvested via cardiac stick and serum was isolated. Cytokine levels were quantified using an ELISA assay.
A preliminary safety assessment was conducted on the lead LNP, 304O13, and it was compared to another previously-discovered LNP formulation, C12-200 (Love, K. T. et al. Lipid-like materials for low-dose, in vivo gene silencing. PNAS 107, 1864-1869 (2010)). […] Serum cytokine levels for both materials were assessed in mice four hours after a 3 mg/kg IV bolus injection (total siRNA). […] Clinical chemistry parameters were evaluated for both materials 72 hours after a single dose of 3 mg/kg and after four once weekly doses of 3 mg/kg each.

[10] = multi-dose, four injections once per week for four weeks

In the case of `CCCCCCCCCCCCCOC(=O)CCN(CCC(=O)OCCCCCCCCCCCCC)CCN(CCC(=O)OCCCCCCCCCCCCC)CCN(CC)CC` [Lipidoid 123O13], the “Relative Luciferase Activity” value [1] is reported as 0.22, the “Relative FVII Activity” value ([2]; 0.1 mg/kg siRNA) is reported as 0.86 and the “Relative FVII Activity” value ([2]; 0.5 mg/kg siRNA) is reported as 0.50. For the same compound, the “Relative FVII Activity” value ([2]; 2 mg/kg siRNA) was 0.00 and the “Relative FVII Activity” value ([2]; 5 mg/kg siRNA) was 0.00.
With `CCCCCCCCCCCCOC(=O)CCN(CCC(=O)OCCCCCCCCCCCC)C[C@@H]1CCCN1CCC(=O)OCCCCCCCCCCCC` [Lipidoid 154O12] the “Relative Luciferase Activity” value [1] was 0.33 and the “Relative FVII Activity” value ([2]; 5 mg/kg siRNA) was 0.99.
With `CCCCCCCCCCCCCCOC(=O)CCN(CCC(=O)OCCCCCCCCCCCCCC)[C@@H](CO)[C@H](C)O` [Lipidoid 196O14] the “Relative Luciferase Activity” value [1] was 0.38 and the “Relative FVII Activity” value ([2]; 5 mg/kg siRNA) was 0.82.
In the case of `CCCCCCCCCCCCCCOC(=O)CCN(CCC(=O)OCCCCCCCCCCCCCC)CCC1CCN(CCC(=O)OCCCCCCCCCCCCCC)CC1` [Lipidoid 205O14], the “Relative Luciferase Activity” value [1] is reported as 0.43 and the “Relative FVII Activity” value ([2]; 5 mg/kg siRNA) is reported as 0.83.
With `CCCCCCCCCCCCCOC(=O)CCN(C)CCCN(CC)CCCN(C)CCC(=O)OCCCCCCCCCCCCC` [Lipidoid 218O13] the “Relative Luciferase Activity” value [1] was 0.41 and the “Relative FVII Activity” value ([2]; 5 mg/kg siRNA) was 0.73.
In the case of `CCCCCCCCCCCCCOC(=O)CCN(CCC(=O)OCCCCCCCCCCCCC)CC1CCCN1C` (stereo not shown) [Lipidoid 232O13], the “Relative Luciferase Activity” value [1] is reported as 0.39.
With `CCCCCCCCCCCCCOC(=O)CCN(CCC(=O)OCCCCCCCCCCCCC)CC1CCCN(C)C1` (stereo not shown) [Lipidoid 235O13] the “Relative Luciferase Activity” value [1] was 0.42 and the “Relative FVII Activity” value ([2]; 5 mg/kg siRNA) was 0.39.
For `CCCCCCCCCCCCCOC(=O)CCN(C)CCN(CCN(C)CCC(=O)OCCCCCCCCCCCCC)CCN(C)CCC(=O)OCCCCCCCCCCCCC` [Lipidoid 304O13], the “Relative Luciferase Activity” value [1] was 0.08, the “Relative FVII Activity” value ([2]; 0.1 mg/kg siRNA) was 0.54 and the “Relative FVII Activity” value ([2]; 0.5 mg/kg siRNA) was 0.23. For the same compound, the “Relative FVII Activity” value ([2]; 2 mg/kg siRNA) was 0.02, the “Relative FVII Activity” value ([2]; 5 mg/kg siRNA) was 0.01 and the “time for Factor VII levels to return to baseline” value ([2]; optimized 304O13, single injection at 0.1 mg/kg) was at most 18 days. The “siRNA Entrapment” value ([3]; lipid nanoparticle, RiboGreen RNA assay) was 84.2%, the Diameter ([3]; lipid nanoparticle, average effective diameter) was 86.0 nm and the “Zeta Potential” value ([3]; lipid nanoparticle, neutral pH) was 13.7 mV. For the same compound, the pKa ([3]; nanoparticle surface, TNS assay) was 6.8, the “albumin, ALT, AST, ALP, total bilirubin, GGT” value [4] was “no toxicologically significant increases” and the “doses with no sign of liver toxicity” value [5, 10] was “up to 5 mg/kg”. The “dose at which a small amount of apoptosis in splenic red pulp was observed” value ([5]; single-dose studies) was 10 mg/kg, the “dose at which liver necrosis was observed” value [5] was 10 mg/kg and the “degradation under hydrolytic conditions (1H NMR, TLC)” value [6] was “degraded to the anticipated alkyl-alcohol product”. The “CD45 silencing in immune cells” value [7] was “most robust CD45 silencing” and the “siRNA distribution within liver (confocal microscopy)” value [8] was “siRNA accumulation throughout nearly all hepatocellular tissue”.
In the case of `CCCCCCCCCCCCOC(=O)CCN(CCC(=O)OCCCCCCCCCCCC)CC1(C)CC(N(CCC(=O)OCCCCCCCCCCCC)CCC(=O)OCCCCCCCCCCCC)CC(C)(C)C1` (stereo not shown) [Lipidoid 315O12], the “Relative Luciferase Activity” value [1] is reported as 0.30, the “Relative FVII Activity” value ([2]; 5 mg/kg siRNA) is reported as 0.99 and the “CD45 silencing in immune cells” value [7] is reported as “modest CD45 silencing”.
With `CCCCCCCCCCCCCOC(=O)CCN(CCC(=O)OCCCCCCCCCCCCC)CCN(C)CCCN(C)CCN(CCC(=O)OCCCCCCCCCCCCC)CCC(=O)OCCCCCCCCCCCCC` [Lipidoid 503O13] the “Relative Luciferase Activity” value [1] was 0.07 and the “FVII knockdown with control (non-targeting) siRNA” value ([2]; LNP encapsulating control siRNA) was “did not result in FVII knockdown”.
In the case of `CCCCCCCCCCC(O)CN(CCN1CCN(CCN(CC(O)CCCCCCCCCC)CC(O)CCCCCCCCCC)CC1)CCN(CC(O)CCCCCCCCCC)CC(O)CCCCCCCCCC` (stereo not shown) [Lipidoid C12-200, reference compound], the “serum IL-6, IP-10, KC and MCP-1 levels vs PBS control and 304O13 groups” value [9] is reported as “elevated”, the “albumin, ALT, AST, ALP, total bilirubin, GGT” value [4] is reported as “no toxicologically significant increases” and the “doses at which liver necrosis and inflammation were observed” value [5, 10] is reported as at least 1 mg/kg. The “doses at which pancreatic inflammation and islet cell enlargement were detected” value ([5]; single-dose studies) was at least 2 mg/kg and the “dose at which liver necrosis was observed” value [5] was 7.5 mg/kg.
